Results published in patent US9464113B2, “Anti-heparan sulfate peptides that block herpes simplex virus infection in vivo” (The Board of Trustees of the University of Illinois, priority 2010, dated 2016).
No end group written: not given here.

Experiments:
HSV-1(K26GFP) = HSV-1(K26GFP) replication in human CF (GFP fluorescence over time); assay type: cell-based, herpes simplex virus type-1; details: 0-36 h post-infection (FIG. 6D)
Procedure: GFP-expressing HSV-1(K26GFP) intensity as a surrogate for virus binding was quantified in presence G2 or control peptide (abbreviated as C) by flow cytometry (FIG. 6C). The cell/virus incubation was performed as described above. G2 peptides block HSV-1 replication into cultured human corneal fibroblasts (CF) (FIG. 6D). Cultured CF were pre-incubated with G2 or mock-treated (Cp) before infection with HSV-1(K26GFP) virus for 6 h. Viral replications in CF were quantified 0-36 h post-infection by measuring GFP fluorescent intensity using a fluorescence reader (Tecan). The data shown are the means of triplicate measures and are representative of three independent experiments. Asterisks indicate significant difference from other treatments (P<0.01, t test), error bars represent standard deviation (SD).
To further confirm that blocking of viral attachment results in a reduction of viral replication, GFP fluorescence was measured as a function of time (K26GFP) (Desai and Person J. Virol. 72:7563-7568 (1998)) in both G2- and mock-treated cells.

[1] = tested on: β-galactosidase expressing CMV; experiment: CMV entry assay in RPE cells; assay type: cell-based, cytomegalovirus; details: 0.5 mM, 60 min pre-treatment, 8 h, ONPG and X-gal
Procedure: Natural target RPE cells were incubated with G1 and G2 peptides for 60 min at room temperature before the cells were infected with β-galactosidase expressing CMV (ATCC) for 8 h. β-galactosidase assays were performed using either a soluble substrate o-nitrophenyl-β-D-galactopyranoside (ONPG at 3.0 mg/ml; ImmunoPure, Pierce) or X-gal (Sigma).
In order to detect each peptide's effect on viral entry, Lac Z-expressing reporter CMV and GFP-expressing HHV-8 viruses (Viera et al., J. Virol. 72:5182-5188 (2000)) and their natural target cells were employed for entry measurements. […] A monolayer of cultured RPE cells grown in a 96 well plate were pre-treated with G1, G2, or control peptide (Cp) at 0.5 mM concentration (FIG. 5A). A mock-treated population of RPE cells served as positive control (abbreviated as C). After 60 min of incubation at room temperature, the cells were infected with β-galactosidase expressing CMV reporter virus. After 8 h, viral entry was measured as described for FIG. 1.
The effect of CMV entry blocking activity of G1, G2 or Cp peptide for individual RPE cells was determined by X-gal staining, which yields an insoluble blue product upon hydrolysis by β-galactosidase (FIG. 5B). Individual cells were examined using a Zeiss Axiovert 100 microscope at 20× magnification. Infected cells turn blue. […]

[2] = tested on: HSV-1 glycoproteins (gB, gD, gH-gL) induced membrane fusion; experiment: HSV-1 glycoprotein induced cell-to-cell fusion assay, 3-OST-3-expressing CHO-K1 target cells; assay type: cell-based, herpes simplex virus type-1
From the text: CHO-K1 “effector” cells (grown in F-12 Ham, Invitrogen) were co-transfected with plasmids expressing four HSV-1(KOS) glycoproteins: pPEP98 (gB), pPEP99 (gD), pPEP100 (gH), and pPEP101 (gL), along with the plasmid pT7EMCLuc that expresses firefly luciferase gene under transcriptional control of the T7 promoter. Pertel et al., Virology 279:313-324 (2001). Wild-type CHO-K1 cells, which express cell-surface HS but lack functional gD receptors, were transiently transfected with HSV-1 entry receptors. Wild-type CHO-K1 cultured cells expressing HSV-1 entry receptors or naturally susceptible cells (human CF) considered as “target cells” were co-transfected with pCAGT7 that expresses T7 RNA polymerase using chicken actin promoter and CMV enhancer. Tiwari et al., FEBS Letters 581:4468-4472 (2007). Untreated effector cells expressing pT7EMCLuc and HSV-1 essential glycoproteins, and target cells expressing gD receptors transfected with T7 RNA polymerase, were used as positive controls. […]
Control effector cells (T7 polymerase and gD, gH-gL only) (−) were also pre-incubated with G2 for the same duration. […] Membrane fusion as a surrogate for viral spread was detected by monitoring luciferase activity (FIGS. 7A and 7C). Relative luciferase units (RLUs) were determined using a Sirius luminometer (Berthold detection systems). […]

| Sequence | viral replication (GFP intensity over time) (HSV-1(K26GFP)) | blocking of CMV entry [1] | blocking of membrane fusion (luciferase activity) ([2]; 3-OST-3-expressing CHO-K1 cells (FIG. 7C)) | syncytia (polykaryocyte) formation, Giemsa staining ([2]; 3-OST-3-expressing CHO-K1 cells (FIG. 7D)) |
| --- | --- | --- | --- | --- |
| MPRRRRIRRRQK [G2, MPRRRRIRRRQK] | substantial reduction of viral replication | effective in blocking CMV entry | very effective in blocking membrane fusion | loss of syncytia formation |
| LRSRTKIIRIRH [G1, LRSRTKIIRIRH] |  | no effect on viral entry |  |  |
